The values that follow come from US12448383B2, “Compounds and methods for treatment of viral infections” (priority 2022, dated 2025).

Data set [1] in a line: CC50 MT4 cytotoxicity (Cell-Titer Glo). In kind it is cell-based. The following applies: human. As for the experimental part: Cytotoxicity of the compounds was determined in uninfected cells using the cell viability reagent in a similar fashion as described before for other cell types (Cihlar et al., Antimicrob Agents Chemother. 2008, 52(2):655-65). HEp-2 (1.5×10^3 cells/well) and MT-4 (2×10^3 cells/well) cells were plated in 384-well plates and incubated with the appropriate medium containing 3-fold serially diluted compound ranging from 15 nM to 100,000 nM. Cells were cultured for 4-5 days at 37° C. Following the incubation, the cells were allowed to equilibrate to 25° C., and cell viability was determined by adding Cell-Titer Glo viability reagent. The mixture was incubated for 10 min, and the luminescence signal was quantified using an Envision plate reader. Untreated cell and cells treated at 2 μM puromycin (Sigma, St. Louis, MO) serve as 100% and 0% cell viability control, respectively. The percent of cell viability was calculated for each tested compound concentration relative to the 0% and 100% controls and the CCso value was determined by non-linear regression as a compound concentration reducing the cell viability by 50%.

Data set [2] concerns Caco-2 cells (clone C2BBe1). The data set is described as follows: CACO-2 permeability. The data set is classed as in vitro ADME. Details: unit not given here. The note with it: for DM Caco2 A to B: apical to basolateral, donor pH 6.5, receiver pH 7.4; for DM Caco2 B to A: basolateral to apical. As for the experimental part: Pre-plated Caco-2 cells (clone C2BBel) were obtained from Sigma-Aldrich, Inc. (Atlanta, GA). Cell monolayers were grown to confluence on collagen-coated, microporous, polycarbonate membranes in 24-well transwell plates for 21 days. The permeability assay buffer in donor wells was Hanks' balanced salt solution (HBSS) containing 10 mM HEPES and 15 mM glucose at a pH of 6.5 containing 200 μM BNPP. The receiver wells used HBSS buffer containing 10 mM HEPES and 15 mM glucose at a pH of 7.4 and supplemented with 1°% BSA. After an initial equilibration with transport buffer, TEER values were read to test membrane integrity. The experiment was started by the addition of buffers containing test compounds, 200 μl and 1000 μl in the apical and basolateral chamber, respectively. At 0- and 2-hour post dose, 10 μL was sampled from donor compartment and was immediately diluted in 190 μL of 20% methanol. At 1 and 2 hours post dose, 100 μl of solution was taken from the receiver compartments and was immediately diluted in 100 μl of 20% methanol. Removed buffer was replaced with fresh buffer and a correction was applied to all calculations for the removed material. Each compound was tested in 2 separate replicate wells for each condition. All samples were then extracted with 400 μl 100% acetonitrile with internal standard to precipitate protein. Cells were dosed on the apical or basolateral side to determine forward (A to B) and reverse (B to A) permeability. To test for non-specific binding and compound instability, the total amount of drug was quantitated at the end of the experiment and compared to the material present in the original dosing solution as a percent recovery. […] Samples were analyzed by LC-MS/MS.
On the technique in general: Caco-2 monolayers are a common model of the intestinal barrier.

Another data set is described as follows: Plasma stability. Details: unit not given here. The note with it: 37° C., 2 μM substrate. In kind it is in vitro ADME. As for the experimental part: At 0.05, 0.5, 1, 2, 3 and 4 hr, […] aliquots of the reaction mixture were transferred to plates containing […] of IS/Q quenching solution. After quenching, the plates were centrifuged at 3000 g for 30 minutes, and 150 μL supernatant was diluted with 150 μL water. Aliquots ([…]) of the diluted supernatant were analyzed on a Thermo Q-Exactive mass spectrometer as described below.
Mobile phase A consisted of 0.1% (v/v) formic acid in water. Mobile phase B consisted of 0.1% (v/v) formic acid in acetonitrile. Elution of analytes was achieved by a series of linear gradients of acetonitrile in water containing 0.1°(v/v) formic acid. The mass spectrometer was calibrated on a weekly basis and mass tolerance of 5 ppm was used.

Data set [3] in a line: GI S9 stability - no PMSF. The data set is classed as in vitro ADME. The note with it: pH 7.4; human intestinal S9, PMSF-free; read-out: GIS9-HUMAN-NoPMSF T1/2. As for the experimental part: Duplicate aliquots of test compound or positive control substrate (GS-7340) were added to S9 stock diluted with 100 mM phosphate buffered saline, pH 7.4, to obtain a protein concentration of 1.0 mg/mL. The S9 metabolic reactions were initiated by the addition of the substrates to the S9 reaction mixture to a final concentration of 2 μM. At 0, 10, 20, 30, 60 and 120 min, […] aliquots of the reaction mixture were transferred to plates containing […] of IS/Q solution. After quenching, the plates were centrifuged at 3000 g for 30 minutes, and 150 μL aliquots of each supernatant were diluted with 150 μL water. Aliquots ([…]) of the diluted supernatant were analyzed on a Thermo Q-Exactive mass spectrometer as described below. GI S9 Stability—No phenylmethylsulfonyl fluoride (PMSF): Similar to the procedure described above, test compounds were incubated at 2 μM with 1 mg/mL PMSF-free Intestinal S9 fractions. Samples are removed at 6 time points over the course of a 120 min experiment and the parent compound disappreance and reference compound A formation is determined by mass spectrometry.
Example K: Liquid Chromatography/Mass Spectroscopy Methods for S9 and Plasma Stability
Quantification of test compounds, Reference Compound A (S9 stability assay nucleoside metabolite), and controls was performed by analyte/internal standard peak area ratio (PAR) values measured on a Thermo Q-Exactive mass spectrometer coupled to a Dionex UltiMate 3000 HPLC with a Leap Technologies HTC PAL autosampler. The column used for analysis of test compounds and Reference Compound A was a Waters Acquity BEH C18 ([…] particle size, 2.1′50 mm). The column used for control (GS-7340) was a Thermo Hypersil GOLD ([…] particle size, 2.1′50 mm). Mobile phase A consisted of 0.1% (v/v) formic acid in water. Mobile phase B consisted of 0.1% (v/v) formic acid in acetonitrile. Elution of analytes was achieved by a series of linear gradients of acetonitrile in water containing 0.1°(v/v) formic acid. The mass spectrometer was calibrated on a weekly basis and mass tolerance of 5 ppm was used.

For data set [4], the system named is Respiratory syncytial virus recombinant with luciferase (RSV-Luc5) in Normal Human Bronchial Epithelial (NHBE) cells. The data set is described as follows: microbe, parasite or virus in culture. The data set is classed as cell-based. The following applies: 72 h, read-out: RSV NHBE EC50.
Data set [5] concerns SARS Coronavirus 2 recombinant with NanoLuc (SARS-CoV2-NLuc) in A549-hACE2 cells. Briefly: organism not typed. In kind it is cell-based. The note with it: 48 h; read-out: SARS-CoV2 EC50.

In general, CC50 refers to the concentration at which the toxic effect on the cells reaches its halfway point. The term EC50 denotes the concentration at which the effect is half-maximal. With `CC1=CCC(OC(=O)OC[C@H]2O[C@@](C#N)(c3ccc4c(N)ncnn34)[C@H](O)[C@@H]2O)(C(C)C)CC1` (stereo partly drawn) [Compound 74, ((2R,3S,4R,5R)-5-(4-aminopyrrolo[2,1-f][1,2,4]triazin-7-yl)-5-cyano-3,4-dihydroxytetrahydrofuran-2-yl)methyl (1-isopropyl-4-methylcyclohex-3-en-1-yl) carbonate], in data set [1], the CC50 was > 50 µM. Further, in data set [2], the “DM Caco2 A to B” value was 3.25. The “DM Caco2 B to A” value in data set [2] is 9.88. Further, in the data set “Plasma stability”, the “STA Human Plasma 37” value was 205.11. Besides, the half-life at 2 µM in data set [3] is 30.3 min. Moreover, the EC50 amounted to 0.956 µM in data set [4] and 2.4 µM in data set [5].

Consider `CC(C)OC(=O)OC[C@H]1O[C@@](C#N)(c2ccc3c(NC(=O)OC(C)(C)C)ncnn23)[C@H](OC(=O)OC(C)C)[C@@H]1OC(=O)OC(C)C` [Compound 80, tert-butyl (7-((2R,3R,4R,5R)-2-cyano-3,4-bis((isopropoxycarbonyl)oxy)-5-(((isopropoxycarbonyl)oxy)methyl)tetrahydrofuran-2-yl)pyrrolo[2,1-f][1,2,4]triazin-4-yl)carbamate], for which the CC50 in data set [1] was > 50 µM. Also, in data set [2], the “DM Caco2 A to B” value is on record as 1.35 and the “DM Caco2 B to A” value was found to be 0.95. For the same molecule, the “STA Human Plasma 37” value in “Plasma stability” was 604.23. For the same molecule, the half-life at 2 µM in data set [3] worked out at 0.847 min. For the same molecule, in data set [4], the EC50 was determined as 2.04 µM. Also, the EC50 in data set [5] was > 50 µM.

Consider `Cc1ccc(C(C)C)c(OC(=O)OC[C@H]2O[C@@](C#N)(c3ccc4c(N)ncnn34)[C@H](O)[C@@H]2O)c1` [Compound 82, ((2R,3S,4R,5R)-5-(4-aminopyrrolo[2,1-f][1,2,4]triazin-7-yl)-5-cyano-3,4-dihydroxytetrahydrofuran-2-yl)methyl (2-isopropyl-5-methylphenyl) carbonate], for which, in data set [1], the CC50 is > 50 µM. Moreover, in data set [2], the “DM Caco2 A to B” value is given as 2.73. Moreover, the “DM Caco2 B to A” value in data set [2] is recorded as 20.67. Moreover, the “STA Human Plasma 37” value in “Plasma stability” was found to be 193.22. The half-life at 2 µM in data set [3] was determined as 2 min. For the same molecule, the EC50 in data set [4] was determined as 2.41 µM; in data set [5] it was 1.55 µM.

`CC(C)[C@@H]1CC[C@@H](C)C[C@H]1OC(=O)OC[C@H]1O[C@@](C#N)(c2ccc3c(N)ncnn23)[C@H](O)[C@@H]1O` [Compound 83, ((2R,3S,4R,5R)-5-(4-aminopyrrolo[2,1-f][1,2,4]triazin-7-yl)-5-cyano-3,4-dihydroxytetrahydrofuran-2-yl)methyl ((1R,2S,5R)-2-isopropyl-5-methylcyclohexyl) carbonate] showed a CC50 in data set [1] of 21 µM. In addition, in data set [2], the “DM Caco2 A to B” value came out at 5.3. In addition, the “DM Caco2 B to A” value in data set [2] stood at 25.42. Also, the “STA Human Plasma 37” value in “Plasma stability” is reported as 1584. The half-life at 2 µM in data set [3] was 12.1 min. The EC50 in data set [4] worked out at 2.32 µM; in data set [5], 24.5 µM.

Turning to `CC(C)OC(=O)OC[C@H]1O[C@@](C#N)(c2ccc3c(N)ncnn23)[C@H](O)[C@@H]1OC(=O)CCCCCCC(=O)O` [Compound 130, 8-(((2R,3S,4R,5R)-5-(4-aminopyrrolo[2,1-f][1,2,4]triazin-7-yl)-5-cyano-4-hydroxy-2-(((isopropoxycarbonyl)oxy)methyl)tetrahydrofuran-3-yl)oxy)-8-oxooctanoic acid], in data set [1], the CC50 is > 50 µM. Also, in data set [2], the “DM Caco2 A to B” value stood at 0.12 and the “DM Caco2 B to A” value stood at 2.54. Besides, the “STA Human Plasma 37” value in the data set “Plasma stability” amounted to 409.28. In data set [3], the half-life at 2 µM came to 1.59 min. Moreover, the half-maximal effective concentration (EC50) in data set [4] turned out to be 2.96 µM. In addition, in data set [5], the EC50 is 9.04 µM.

Regarding `CCOC(=O)OC[C@H]1O[C@@](C#N)(c2ccc3c(NC(=O)OCc4ccccc4)ncnn23)[C@H](O)[C@@H]1O` [Compound 131, benzyl (7-((2R,3R,4S,5R)-2-cyano-5-(((ethoxycarbonyl)oxy)methyl)-3,4-dihydroxytetrahydrofuran-2-yl)pyrrolo[2,1-f][1,2,4]triazin-4-yl)carbamate], the CC50 in data set [1] is > 50 µM. Also, the “DM Caco2 A to B” value in data set [2] came out at 2.01. Further, the “DM Caco2 B to A” value in data set [2] came out at 15.52. Further, the “STA Human Plasma 37” value in the data set “Plasma stability” came out at 150.92. For the same molecule, in data set [3], the half-life at 2 µM amounted to 2.64 min. Further, the EC50 stood at 4.79 µM in data set [4] and 8.26 µM in data set [5].

Turning to `CCOC(=O)OC[C@H]1O[C@@](C#N)(c2ccc3c(N)ncnn23)[C@@H]2OC(CC)O[C@@H]21` (stereo partly drawn) [Compound 132, ((3aR,4R,6R,6aR)-6-(4-aminopyrrolo[2,1-f][1,2,4]triazin-7-yl)-6-cyano-2-ethyltetrahydrofuro[3,4-d][1,3]dioxol-4-yl)methyl ethyl carbonate], the cytotoxic concentration (CC50) in data set [1] was > 50 µM. In addition, in data set [2], the “DM Caco2 A to B” value worked out at 12.34 and the “DM Caco2 B to A” value turned out to be 13.86. Also, the “STA Human Plasma 37” value in the data set “Plasma stability” is 12.304. In addition, the half-life at 2 µM in data set [3] amounted to 0.624 min. In addition, the EC50 in data set [4] is > 50 µM. For the same molecule, in data set [5], the 50% effective concentration (EC50) is > 50 µM.

For the molecule `COC(=O)O[C@H]1[C@@H](OC(=O)OC)[C@](C#N)(c2ccc3c(N)ncnn23)O[C@@H]1COC(=O)OC(C)C` [Compound 135, (2R,3R,4R,5R)-2-(4-aminopyrrolo[2,1-f][1,2,4]triazin-7-yl)-2-cyano-5-(((isopropoxycarbonyl)oxy)methyl)tetrahydrofuran-3,4-diyl dimethyl bis(carbonate)], the half-maximal cytotoxic concentration (CC50) in data set [1] is > 50 µM. Also, the “DM Caco2 A to B” value in data set [2] was found to be 3.87. Also, the “DM Caco2 B to A” value in data set [2] is recorded as 18.05. In addition, the “STA Human Plasma 37” value in the data set “Plasma stability” is recorded as 96.462. In addition, the half-life at 2 µM in data set [3] is 0.653 min. Besides, the EC50 in data set [4] and in data set [5] was > 50 µM each time.
